Consider 26 compounds from US7091202B2, “4-arylspirocycloalkyl-2-aminopyrimidine carboxamide KCNQ potassium channel modulators” (Bristol-Myers Squibb Company, priority 2004, dated 2006).

The test concerns the target T1, hQ23 (HEK-293 cell line stably transfected with one of the members of the KCNQ family) (Homo sapiens, UniProt O43525+O43526).
T1 construct: expressed in transfected cells; host or cells: HEK-293, stably transfected
As to the kind of experiment: Thallium flux assay for KCNQ channel blockers (FLIPR, BTC dye). It counts as cell-based. The conditions noted are these: hQ23 cells, thallium flux. As for the experimental part:
Thallium Flux Assay for KCNQ channel blockers. Approximately 20,000 cells/well of an HEK-293 cell line stably transfected with one of the members of the KCNQ family were plated into clear-bottom, black-walled, poly-D-lysine coated, 384 well assay plates in 20 μl/well of low chloride plating medium. Low chloride plating medium was composed of the following: sodium gluconate, 109 mM; potassium gluconate, 5.4 mM; hemi-calcium gluconate, 3.6 mM; magnesium sulfate, 0.8 mM; sodium bicarbonate, 26.2 mM; sodium phosphate monobasic, 1.2 mM; glutamine, 2 mM; glucose, 5 mM; HEPES (pH 7.3) 10 mM, 10× concentration of vitamins (Gibco/LifeTechnologies catalog #11120-052) and 1× concentration of amino acids (Gibco/LifeTechnologies catalog #11130-051).
Following overnight incubation in a 5% CO2 incubator at 37° C., the cells in the plates were loaded with 20 μl/well of a dye loading solution containing the acetomethoxy ester of the thallium-sensitive fluorescent dye BTC, BTC-AM (2 μM) and pluronic acid (0.02% w/v) in chloride free assay buffer. Chloride free assay buffer was composed of the following: sodium gluconate, 140 mM; potassium gluconate, 2.5 mM; hemi-calcium gluconate, 6 mM; hemi-magnesium gluconate, 2 mM; glucose, 5 mM; HEPES (pH 7.3), 10 mM.
Following incubation in the dye loading solution for from 45–90 min at room temperature, the dye loading solution was removed by aspiration and replaced with 40 μl/well of chloride free assay buffer.
Prior to addition to cell plates, test compound and standard compounds were dissolved in DMSO to 3 mM concentration. Compounds were then diluted from the 3 mM stock to 100-fold over the final assay concentration in DMSO. Finally, compounds in DMSO were diluted from 100-fold over the final assay concentration to 5-fold over the final assay concentration in chloride free assay buffer.
Ten μl/well of compounds at 5-fold over the final assay concentration were then added to the cell plates. This represents a 1:5 dilution, yielding the final test concentration. The wells used for test compounds were A1–P20. Wells A21–P22 contained a standard ‘blocker’ and a fully efficacious concentration (positive control). Wells A23–P24 contained chloride free assay buffer containing 1% DMSO (negative control).
Following addition of test compounds, the plates were loaded onto the Molecular Devices FLIPR. The 488 nm line of the argon laser was used to excite the BTC and the emission filter was a 540(+/−30) nm. Images were collected at 1 Hz. Ten seconds of baseline were collected and then the FLIPR was used to add 13 μl/well of a stimulus buffer composed of Tl2SO4, 25 mM; sodium gluconate, 30 mM; potassium sulfate, 50 mM; hemi-calcium gluconate, 6 mM; hemi-magnesium gluconate, 2 mM; glucose, 5 mM; HEPES (pH 7.3), 10 mM in chloride free assay buffer. Images were collected for an additional 60 seconds.
For data analysis, the amplitude of the average of the negative controls was subtracted from all wells. The amplitudes of the test compounds were then compared to the value of four standard deviations of the negative control wells. The lowest concentration of a test compound sufficient to generate a signal amplitude greater than or equal to four standard deviations from the amplitude of the negative controls was defined as the minimal active concentration.
For generating IC50 values, compounds were serially diluted in 1:3 volume increments to produce a 10 point concentration series. IC50 values were calculated by fitting the resulting amplitudes to a single-site logistic equation. IC50 was defined as the concentration of test compound required to yield 50% of the response of the positive control.

T1 sequence (O43526 whole entry): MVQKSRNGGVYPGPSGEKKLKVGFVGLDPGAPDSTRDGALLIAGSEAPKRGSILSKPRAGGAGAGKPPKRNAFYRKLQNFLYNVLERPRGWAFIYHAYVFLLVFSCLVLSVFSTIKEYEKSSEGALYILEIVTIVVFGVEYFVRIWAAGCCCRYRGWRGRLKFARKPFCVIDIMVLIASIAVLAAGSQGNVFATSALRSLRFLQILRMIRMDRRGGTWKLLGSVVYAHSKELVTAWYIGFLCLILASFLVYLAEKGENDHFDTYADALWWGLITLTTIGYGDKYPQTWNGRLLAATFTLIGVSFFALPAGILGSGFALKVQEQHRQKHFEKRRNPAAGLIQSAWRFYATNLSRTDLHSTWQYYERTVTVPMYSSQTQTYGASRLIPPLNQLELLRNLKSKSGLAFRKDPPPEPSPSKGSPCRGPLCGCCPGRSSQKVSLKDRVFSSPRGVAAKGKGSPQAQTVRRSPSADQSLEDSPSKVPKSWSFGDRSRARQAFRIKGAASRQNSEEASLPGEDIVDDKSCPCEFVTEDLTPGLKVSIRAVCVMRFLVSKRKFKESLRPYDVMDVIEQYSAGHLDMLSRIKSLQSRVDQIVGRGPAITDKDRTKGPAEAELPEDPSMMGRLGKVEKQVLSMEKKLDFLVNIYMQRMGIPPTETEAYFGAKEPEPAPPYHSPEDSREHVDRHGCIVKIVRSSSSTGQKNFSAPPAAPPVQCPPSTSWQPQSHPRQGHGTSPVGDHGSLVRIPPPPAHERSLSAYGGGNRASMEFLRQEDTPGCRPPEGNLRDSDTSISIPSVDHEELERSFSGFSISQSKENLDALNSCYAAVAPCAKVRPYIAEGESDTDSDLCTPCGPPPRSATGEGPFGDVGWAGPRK
T1 sequence (O43525 whole entry): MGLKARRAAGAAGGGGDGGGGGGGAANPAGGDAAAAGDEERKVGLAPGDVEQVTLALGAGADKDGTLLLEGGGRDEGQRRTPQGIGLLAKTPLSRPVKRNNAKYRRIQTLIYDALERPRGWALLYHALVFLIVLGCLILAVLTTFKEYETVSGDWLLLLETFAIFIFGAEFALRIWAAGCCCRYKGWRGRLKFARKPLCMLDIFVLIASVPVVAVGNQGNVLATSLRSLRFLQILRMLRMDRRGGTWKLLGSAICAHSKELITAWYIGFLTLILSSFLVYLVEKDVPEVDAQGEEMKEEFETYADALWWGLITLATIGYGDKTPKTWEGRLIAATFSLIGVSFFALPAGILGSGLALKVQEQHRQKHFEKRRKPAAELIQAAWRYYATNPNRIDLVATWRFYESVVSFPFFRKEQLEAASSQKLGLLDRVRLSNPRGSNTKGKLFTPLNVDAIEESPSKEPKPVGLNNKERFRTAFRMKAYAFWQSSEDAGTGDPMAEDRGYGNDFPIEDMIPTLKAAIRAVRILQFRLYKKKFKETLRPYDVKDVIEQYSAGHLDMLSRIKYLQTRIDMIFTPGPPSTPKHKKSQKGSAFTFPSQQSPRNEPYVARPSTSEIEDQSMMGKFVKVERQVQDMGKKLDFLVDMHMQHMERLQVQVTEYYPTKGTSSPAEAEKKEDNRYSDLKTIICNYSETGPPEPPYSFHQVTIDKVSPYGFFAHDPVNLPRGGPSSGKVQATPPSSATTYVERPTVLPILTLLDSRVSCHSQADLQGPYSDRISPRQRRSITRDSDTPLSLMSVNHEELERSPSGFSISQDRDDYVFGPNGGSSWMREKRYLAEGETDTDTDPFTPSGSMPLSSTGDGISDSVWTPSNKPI

As to `CC1CCC(Nc2ncc(C(=O)N3CCc4ccccc4C3)c(C3(c4ccccc4)CCCC3)n2)CC1` (centres unmarked) [Example 73, isoquinoline, 1,2,3,4-tetrahydro-2-[[2-[(4-methylcyclohexyl)amino]-4-(1-phenylcyclopentyl)-5-pyrimidinyl]carbonyl]-], the EC50 (usually the concentration that produces a half-maximal response) came to 798 nM. This counts as sub-micromolar.
In the case of `CC1CCN(c2ncc(C(=O)N3CCc4ccccc4C3)c(C3(c4ccccc4)CCCC3)n2)CC1` [Example 74, isoquinoline, 1,2,3,4-tetrahydro-2-[[2-(4-methyl-1-piperidinyl)-4-(1-phenylcyclopentyl)-5-pyrimidinyl]carbonyl]-] it was 191 nM; in that of `O=C(c1cnc(NC2CCCC2)nc1C1(c2ccccc2)CCCC1)N1CCc2ccccc2C1` [Example 75, isoquinoline, 2-[[2-(cyclopentylamino)-4-(1-phenylcyclopentyl)-5-pyrimidinyl]carbonyl]-1,2,3,4-tetrahydro-], 950 nM.
In the case of `CCN(C(=O)c1cnc(N2CCC(C)CC2)nc1C1(c2ccccc2)CCCC1)C1CCCCC1` [Example 76, 5-pyrimidinecarboxamide, N-cyclohexyl-N-ethyl-2-(4-methyl-1-piperidinyl)-4-(1-phenylcyclopentyl)-] it was 900 nM.
Regarding `CC1CCN(c2ncc(C(=O)N3CCCCC3)c(C3(c4ccccc4)CCCC3)n2)CC1` [Example 77, piperidine, 1-[[2-(4-methyl-1-piperidinyl)-4-(1-phenylcyclopentyl)-5-pyrimidinyl]carbonyl]-], a half-maximal response (EC50) required 164 nM.
Next, `CC1CCN(c2ncc(C(=O)N3CCCC(C)C3)c(C3(c4ccccc4)CCCC3)n2)CC1` (centres unmarked) [Example 78, piperidine, 3-methyl-1-[[2-(4-methyl-1-piperidinyl)-4-(1-phenylcyclopentyl)-5-pyrimidinyl]carbonyl]-]: 775 nM; `CN(CCc1ccccc1)C(=O)c1cnc(N2CCCC2)nc1C1(c2ccccc2)CCCC1` [Example 79, 5-pyrimidinecarboxamide, N-methyl-4-(1-phenylcyclopentyl)-N-(2-phenylethyl)-2-(1-pyrrolidinyl)-]: 444 nM.
Consider `CC1CCCN(c2ncc(C(=O)N(C)CCc3ccccc3)c(C3(c4ccccc4)CCCC3)n2)C1` (centres unmarked) [Example 80, 5-pyrimidinecarboxamide, N-methyl-2-(3-methyl-1-piperidinyl)-4-(1-phenylcyclopentyl)-N-(2-phenylethyl)-], for which the half-maximal effective concentration (EC50) came to 880 nM. This EC50 is about 2-fold higher than that of the compound before.
Turning to `CC1CCN(c2ncc(C(=O)N(C)CCc3ccccc3)c(C3(c4ccccc4)CCCC3)n2)CC1` [Example 81, 5-pyrimidinecarboxamide, N-methyl-2-(4-methyl-1-piperidinyl)-4-(1-phenylcyclopentyl)-N-(2-phenylethyl)-], the EC50 is 437 nM. This EC50 is about 2-fold lower than that of the compound before.
Next, `CC1CCCN(c2ncc(C(=O)N(C(C)C)C(C)C)c(C3(c4ccccc4)CCCC3)n2)C1` (centres unmarked) [Example 82, 5-pyrimidinecarboxamide,N,N-bis(1-methylethyl)-2-(3-methyl-1-piperidinyl)-4-(1-phenylcyclopentyl)-]: 285 nM.
Compound `CCN(C)C(=O)c1cnc(N2CCCC(C)C2)nc1C1(c2ccccc2)CCCC1` (centres unmarked) [Example 83, 5-pyrimidinecarboxamide, N-ethyl-N-methyl-2-(3-methyl-1-piperidinyl)-4-(1-phenylcyclopentyl)-] had an EC50 of 605 nM.
The compound `CCN(Cc1ccccc1)C(=O)c1cnc(NC2CCC(C)CC2)nc1C1(c2ccccc2)CCCC1` (centres unmarked) [Example 84, 5-pyrimidinecarboxamide, N-ethyl-2-[(4-methylcyclohexyl)amino]-4-(1-phenylcyclopentyl)-N-(phenylmethyl)-] came in with a concentration giving a half-maximal response (EC50) of 829 nM.
`CCN(Cc1ccccc1)C(=O)c1cnc(N2CCCC(C)C2)nc1C1(c2ccccc2)CCCC1` (centres unmarked) [Example 85, 5-pyrimidinecarboxamide, N-ethyl-2-(3-methyl-1-piperidinyl)-4-(1-phenylcyclopentyl)-N-(phenylmethyl)-] yielded an EC50 of 161 nM.
Next, `CCN(Cc1ccccc1)C(=O)c1cnc(N2CCC(C)CC2)nc1C1(c2ccccc2)CCCC1` [Example 86, 5-pyrimidinecarboxamide, N-ethyl-2-(4-methyl-1-piperidinyl)-4-(1-phenylcyclopentyl)-N-(phenylmethyl)-]: 334 nM.
Regarding `CCC(C)Nc1ncc(C(=O)N(CC)Cc2ccccc2)c(C2(c3ccccc3)CCCC2)n1` (centres unmarked) [Example 87, 5-pyrimidinecarboxamide, N-ethyl-2-[(1-methylpropyl)amino]-4-(1-phenylcyclopentyl)-N-(phenylmethyl)-], a half-maximal effect (EC50) was put at 851 nM.
On to `CCN(Cc1ccccc1)C(=O)c1cnc(NC2CCCC2)nc1C1(c2ccccc2)CCCC1` [Example 88, 5-pyrimidinecarboxamide, 2-(cyclopentylamino)-N-ethyl-4-(1-phenylcyclopentyl)-N-(phenylmethyl)-], for which the EC50 amounted to 926 nM.
`O=C(NCc1ccc2c(c1)OCO2)c1cnc(NC2CC2)nc1C1(c2ccccc2)CCCC1` [Example 89, 5-pyrimidinecarboxamide, N-(1,3-benzodioxol-5-ylmethyl)-2-(cyclopropylamino)-4-(1-phenylcyclopentyl)-]: the midpoint of the response, the EC50, lay at 692 nM.
As to `CC1CCC(Nc2ncc(C(=O)NCc3ccc4c(c3)OCO4)c(C3(c4ccccc4)CCCC3)n2)CC1` (centres unmarked) [Example 90, 5-pyrimidinecarboxamide, N-(1,3-benzodioxol-5-ylmethyl)-2-[(4-methylcyclohexyl)amino]-4-(1-phenylcyclopentyl)-], a half-maximal response (EC50) required 220 nM.
Consider `CN1CCN(c2ncc(C(=O)NCc3ccc4c(c3)OCO4)c(C3(c4ccccc4)CCCC3)n2)CC1` [Example 91, 5-pyrimidinecarboxamide, N-(1,3-benzodioxol-5-ylmethyl)-2-(4-methyl-1-piperazinyl)-4-(1-phenylcyclopentyl)-], for which the EC50 came to 257 nM.
In the case of `CC1CCCN(c2ncc(C(=O)NCc3ccc4c(c3)OCO4)c(C3(c4ccccc4)CCCC3)n2)C1` (centres unmarked) [Example 92, 5-pyrimidinecarboxamide, N-(1,3-benzodioxol-5-ylmethyl)-2-(3-methyl-1-piperidinyl)-4-(1-phenylcyclopentyl)-] it was 57 nM; in that of `CC1CCN(c2ncc(C(=O)NCc3ccc4c(c3)OCO4)c(C3(c4ccccc4)CCCC3)n2)CC1` [Example 93, 5-pyrimidinecarboxamide, N-(1,3-benzodioxol-5-ylmethyl)-2-(4-methyl-1-piperidinyl)-4-(1-phenylcyclopentyl)-], 37 nM.
`CCC(C)Nc1ncc(C(=O)NCc2ccc3c(c2)OCO3)c(C2(c3ccccc3)CCCC2)n1` (centres unmarked) [Example 94, 5-pyrimidinecarboxamide, N-(1,3-benzodioxol-5-ylmethyl)-2-[(1-methylpropyl)amino]-4-(1-phenylcyclopentyl)-]: the EC50 stood at 301 nM.
In turn, `CC1CCC(Nc2ncc(C(=O)NC(C)c3cccc4ccccc34)c(C3(c4ccccc4)CCCC3)n2)CC1` (centres unmarked) [Example 95, 5-pyrimidinecarboxamide, 2-[(4-methylcyclohexyl)amino]-N-[1-(1-naphthalenyl)ethyl]-4-(1-phenylcyclopentyl)-] came in with an EC50 of 64 nM. This EC50 lies about 4.7-fold lower than the previous one.
`CC(NC(=O)c1cnc(N2CCCC2)nc1C1(c2ccccc2)CCCC1)c1cccc2ccccc12` (centres unmarked) [Example 96, 5-pyrimidinecarboxamide, N-[1-(1-naphthalenyl)ethyl]-4-(1-phenylcyclopentyl)-2-(1-pyrrolidinyl)-]: the EC50 was 148 nM.
The compound `CC1CCCN(c2ncc(C(=O)NC(C)c3cccc4ccccc34)c(C3(c4ccccc4)CCCC3)n2)C1` (centres unmarked) [Example 97, 5-pyrimidinecarboxamide, 2-(3-methyl-1-piperidinyl)-N-[1-(1-naphthalenyl)ethyl]-4-(1-phenylcyclopentyl)-] had a concentration for a half-maximal effect (EC50) of 19 nM.
In turn, `CC1CCN(c2ncc(C(=O)NC(C)c3cccc4ccccc34)c(C3(c4ccccc4)CCCC3)n2)CC1` (centres unmarked) [Example 98, 5-pyrimidinecarboxamide, 2-(4-methyl-1-piperidinyl)-N-[1-(1-naphthalenyl)ethyl]-4-(1-phenylcyclopentyl)-] gave an EC50 of 15 nM. The EC50 values of the last two compounds are within 1.5-fold of each other.
